For this assay, the system named is α7 integrin (LacZ reporter in α7LacZ+/− myoblasts). The assay can be described thus: qHTS of the LOPAC library and MLSMR (online screen, α7LacZ+/− myoblasts). Conditions: for activation at 0.307 µM / activation at 1.53 µM / activation at 7.66 µM / activation at 38.3 µM / Emax / EC50: Mus musculus, Myoblast; for activation at 0.307 µM: read-out: Activity at 0.307 uM [%] **; for activation at 1.53 µM: read-out: Activity at 1.530 uM [%] **; for activation at 7.66 µM: read-out: Activity at 7.660 uM [%] **; for activation at 38.3 µM: read-out: Activity at 38.30uM [%] **; for EC50: read-out: Fit LogAC50 (converted). On the technique in general: qHTS replaces the single test concentration by a dilution series.

The mark [1] stands for this setting: 48 h, read-out: Fit Infinite Activity [%].

Experimental findings from patent publication US9980943B2, “Methods of treating muscular dystrophy” (BOARD OF REGENTS OF THE NEVADA SYSTEM OF HIGHER EDUCATION, …, priority 2013, dated 2018) are described below.

Read-outs that look alike come from different tables or passages of the source.

On to `CN(C)C1(C/N=C/c2cc(Cl)cc([N+](=O)[O-])c2O)CCCCC1` [Compound 101], for which the EC50 is 8.91 µM. Moreover, where the note is “48 h”, the activation at 0.307 µM was -14.2%, the activation at 1.53 µM is -11.6%, the activation at 7.66 µM was determined as 43.3% and the activation at 38.3 µM turned out to be 104%. For the same compound, the Emax under setting [1] came out at 116%. Under “read-out: Max Response [%]”, the Emax stood at 104%. Where the note is “Table 8 Compound data”, this compound yielded a Score of 43.
For the compound `COc1ccc(-c2cc(COc3ccccc3)on2)cc1` [Compound 188], the EC50 is 10 µM. Also, for the setting “48 h”, the activation at 0.307 µM is 0%, the activation at 1.53 µM is 0.795%, the activation at 7.66 µM is 20% and the activation at 38.3 µM worked out at 88.1%. Further, under setting [1], the Emax amounted to 88.2%. Besides, the Emax (read-out: Max Response [%]) was determined as 88.1%.
In the case of `N=C(NOC(=O)COc1cc(Cl)c(Cl)cc1Cl)c1ccncc1` [Compound 125], for the setting “48 h”, the activation at 0.307 µM came out at 0%, the activation at 1.53 µM came to 9.26%, the activation at 7.66 µM amounted to 50.4% and the activation at 38.3 µM amounted to 108%. Moreover, the Emax under setting [1] is 134%. The Emax (read-out: Max Response [%]) came out at 108%.
Take `O=c1oc2c(-c3cccc(F)c3)cc(O)cc2s1` [Compound 23]: the EC50 is 3.98 µM. Where the note is “48 h”, the activation at 0.307 µM came out at 12.6%, the activation at 1.53 µM amounted to 18.8%, the activation at 7.66 µM is 87.3% and the activation at 38.3 µM came to 98.9%. The Emax under setting [1] came out at 98.5%.
Take `O=C(Nc1ccc(Cl)cc1N1CCOCC1)C1CCCCC1` [Compound 53]: the EC50 is 7.08 µM. Also, where the note is “48 h”, the activation at 0.307 µM stood at 0%, the activation at 1.53 µM is 28.1%, the activation at 7.66 µM amounted to 71.9% and the activation at 38.3 µM came to 119%. Moreover, the Emax under setting [1] is 152%.
In the case of `CC(=O)Nc1nonc1-c1nc2ccccc2n1CCC(C)C` [Compound 219], where the note is “48 h”, the activation at 0.307 µM was -8.22%, the activation at 1.53 µM is -3.05%, the activation at 7.66 µM came to 21.4% and the activation at 38.3 µM is 66%. Further, the Emax under setting [1] was determined as 76.4%. The Emax (read-out: Max Response [%]) came to 66%.
Turning to `CC1CCCCN1c1ncnc(N)c1[N+](=O)[O-]` (stereo not drawn) [Compound 52], the EC50 was 4.47 µM. Where the note is “48 h”, the activation at 0.307 µM was -25.7%, the activation at 1.53 µM amounted to 1.73%, the activation at 7.66 µM came out at 86.4% and the activation at 38.3 µM came to 130%. The Emax under setting [1] came out at 138%.
Take `COc1ccc(N2CCCC2)c(NC(=O)c2ccc([N+](=O)[O-])o2)c1` [Compound 46]: the EC50 is 7.94 µM. For the setting “48 h”, the activation at 0.307 µM is -29.7%, the activation at 1.53 µM was found to be 4.44%, the activation at 7.66 µM was determined as 77.6% and the activation at 38.3 µM is 156%. Besides, under setting [1], the Emax came to 196%.
`NC1=Nc2cccc3cccc1c23` [Compound 117]: the EC50 was 7.94 µM. In addition, where the note is “48 h”, the activation at 0.307 µM worked out at 0%, the activation at 1.53 µM amounted to 5.07%, the activation at 7.66 µM amounted to 43.6% and the activation at 38.3 µM was found to be 82.2%. Besides, the Emax under setting [1] was found to be 88.8%. Further, the Emax (read-out: Max Response [%]) amounted to 82.2%.
Regarding `COc1cc2c(cc1NC(=O)Cc1ccc(C)cc1)oc1ccccc12` [Compound 5], the EC50 is 1.12 µM. For the setting “48 h”, the activation at 0.307 µM was -1.8%, the activation at 1.53 µM was determined as 58.4%, the activation at 7.66 µM amounted to 87.2% and the activation at 38.3 µM was determined as 687%. Further, the Emax under setting [1] is 87.4%.
For the compound `Cc1ccc(-c2nc(C)sc2CC(=O)OCC(=O)Nc2c(F)cccc2F)cc1` [Compound 210], where the note is “48 h”, the activation at 0.307 µM stood at 13.8%, the activation at 1.53 µM is 9.43%, the activation at 7.66 µM was 20.3% and the activation at 38.3 µM worked out at 113%. Besides, the Emax under setting [1] came to 113%. The Emax (read-out: Max Response [%]) came out at 113%.
Consider `COc1cc(=O)n(C)c2ccccc12` [Compound 25], for which the EC50 was 2.24 µM. Further, under “48 h”, the activation at 0.307 µM was -16.5%, the activation at 1.53 µM came to 11.1%, the activation at 7.66 µM came out at 54.5% and the activation at 38.3 µM was 63%. The Emax under setting [1] turned out to be 64.1%.
For the compound `COCc1c(C(=O)OCc2nc(=O)c3sccc3[nH]2)oc2ccccc12` [Compound 6], the EC50 is 1.12 µM. Under “48 h”, the activation at 0.307 µM was -39.8%, the activation at 1.53 µM is 19.2%, the activation at 7.66 µM is 60.6% and the activation at 38.3 µM was 68.1%. Further, under setting [1], the Emax is 69.6%.
Regarding `Cn1c(=O)c2c(nc(Sc3ncnn3CC(=O)NC3CCCCC3)n2C)n(C)c1=O` [Compound 201], under “48 h”, the activation at 0.307 µM is -21.5%, the activation at 1.53 µM is -17.1%, the activation at 7.66 µM is 8.09% and the activation at 38.3 µM was 69.8%. Under setting [1], the Emax is 74.9%. In addition, for the setting “read-out: Max Response [%]”, the Emax worked out at 69.8%.
Turning to `CC(NC(=O)c1cn(C)c2ccc(S(=O)(=O)N3CCCC3)cc2c1=O)c1ccccc1` (stereo not drawn) [Compound 28], the EC50 was 2.82 µM. Moreover, for the setting “48 h”, the activation at 0.307 µM was -36%, the activation at 1.53 µM is -20.6%, the activation at 7.66 µM is 48.9% and the activation at 38.3 µM was determined as 54.7%. Besides, under setting [1], the Emax stood at 55.3%.
Consider `Cc1cccn2c(=O)c3cc(C(=O)NC4CCCCC4)n(C)c3nc12` [Compound 40], for which the EC50 was 14.1 µM. Under “48 h”, the activation at 0.307 µM is -13.7%, the activation at 1.53 µM was determined as 5.58%, the activation at 7.66 µM turned out to be 25.2% and the activation at 38.3 µM was determined as 427%. The Emax under setting [1] was found to be 433%.
Turning to `CN(C#N)c1nccc(-c2cccs2)n1` [Compound 190], where the note is “48 h”, the activation at 0.307 µM was -30.5%, the activation at 1.53 µM is -25.3%, the activation at 7.66 µM turned out to be 6.31% and the activation at 38.3 µM was found to be 79.6%. The Emax under setting [1] was 87.5%. For the same compound, the Emax (read-out: Max Response [%]) came out at 79.6%.
Turning to `O=C(CSc1nnc(C2CC2)n1C1CC1)c1cccs1` [Compound 133], the EC50 is 10 µM. Where the note is “48 h”, the activation at 0.307 µM is -26%, the activation at 1.53 µM is -28.4%, the activation at 7.66 µM was found to be 5.99% and the activation at 38.3 µM was found to be 70.2%. The Emax under setting [1] amounted to 73.1%. In addition, the Emax (read-out: Max Response [%]) is 70.2%.
Turning to `COc1ccc(S(=O)(=O)N(NC2=NS(=O)(=O)c3ccccc32)C(=O)C(C)C)cc1` [Compound 37], the EC50 is 2.51 µM. Also, for the setting “48 h”, the activation at 0.307 µM was -1.77%, the activation at 1.53 µM is 15.3%, the activation at 7.66 µM was 70.7% and the activation at 38.3 µM is 72.9%. Also, the Emax under setting [1] is 74.5%.
For `O=C(Cn1cccc1C(=O)c1ccccc1)NCCCc1ccccc1` [Compound 43], the EC50 was 3.98 µM. For the setting “48 h”, the activation at 0.307 µM amounted to 13.7%, the activation at 1.53 µM amounted to 43.9%, the activation at 7.66 µM came to 94.3% and the activation at 38.3 µM was 131%. The Emax under setting [1] turned out to be 148%.
On to `C[C@H]1CNC(=O)c2c(C(=O)Nc3ccc(CNC(=O)OC(C)(C)C)cc3)ncn21` [Compound 88], for which the EC50 was 8.91 µM. Moreover, for the setting “48 h”, the activation at 0.307 µM was found to be 12.6%, the activation at 1.53 µM was 21.8%, the activation at 7.66 µM was 50.5% and the activation at 38.3 µM came to 81.8%. The Emax under setting [1] was 98.4%. Besides, the Emax (read-out: Max Response [%]) is 81.8%.
